Converted amounts (≈) assume the structure as drawn.
Columns and labels:
[1] = test system: Human breast adenocarcinoma cell MCF7; experiment: cells; conditions: Homo sapiens; for IC50: MCF7, read-out: IC50 (50% inhibition concentration); for CC50: MCF7, read-out: LC50 (50% lethal concentration)
Excerpt: (§1) In Vitro Anti-Cancer Test
(§2) The in vitro anti-cancer test was primarily used to detect the effect of a candidate drug on cancer cell proliferation. The working principle involved therein is the ability of viable cells to shift alamarBlue (AbD Serotec, UK) from its originally non-fluorescent oxidized state (non-fluorescent, blue) to a reduced form (fluorescent, red) having fluorescence via metabolic reaction. According to the fluorescent data result generated by the alamarBlue reagent thus obtained, the proliferation of the viable cells and cell activity can be quantified for detection.
(§3) In the in vitro anti-cancer tests, a candidate drug was tested at 5 different concentrations of 0.01, 0.1, 1, 10, and 100 μg/ml, and six human cancer cell lines and a normal human cell line were used (see Table 5).

[2] = test system: Human colon adenocarcinoma cell HT-29; experiment: cells; conditions: for IC50: HT-29, read-out: IC50 (50% inhibition concentration); for CC50: HT-29, read-out: LC50 (50% lethal concentration)
Excerpt: as §1, §2, §3

[3] = in vitro
Excerpt: as §1, §2, §3

[4] = test system: Human histocytic lymphoma cell U937; experiment: cells; conditions: for IC50: U-937, read-out: IC50 (50% inhibition concentration); for CC50: U-937, read-out: LC50 (50% lethal concentration)
Excerpt: as §1, §2, §3

[5] = test system: Human umbilical venal epithelial cell (HUVEC); experiment: cells; conditions: Homo sapiens, HUVEC, read-out: IC50 (50% inhibition concentration)
Excerpt: as §1, §2, §3

[6] = test system: Human lung carcinoma cell A549; experiment: cells; conditions: for IC50: A549, read-out: IC50 (50% inhibition concentration); for CC50: A549, read-out: LC50 (50% lethal concentration)
Excerpt: as §1, §2, §3

[7] = test system: Human promyelocytic leukemia cell HL-60; experiment: cells; conditions: for IC50: HL-60, read-out: IC50 (50% inhibition concentration); for CC50: HL-60, read-out: LC50 (50% lethal concentration)
Excerpt: as §1, §2, §3

[8] = test system: Human hepatocellular carcinoma cell HepG2; experiment: cells; conditions: for IC50: HepG2, read-out: IC50 (50% inhibition concentration); for CC50: HepG2, read-out: LC50 (50% lethal concentration)
Excerpt: as §1, §2, §3

[9] = test system: caspases; conditions: cited from earlier work

Row | Structure (SMILES) | IC50 [1] [µg/mL] | CC50 [1] [µg/mL] | IC50 [2] [µg/mL] | CC50 [2] [µg/mL] | CC50 [3] [µg/mL] | IC50 [4] [µg/mL] | CC50 [4] [µg/mL] | IC50 [5] [µg/mL] | IC50 [6] [µg/mL] | CC50 [6] [µg/mL] | IC50 [7] [µg/mL] | CC50 [7] [µg/mL] | IC50 [8] [µg/mL] | CC50 [8] [µg/mL] | activator of caspases and inducer of apoptosis [9]
1 | CC(C)=CCC/C(C)=C/Cc1c(O)c(CC=C(C)C)c2c(c1O)C(=O)C1=C[C@@H]3CC4C(C)(C)O[C@](C/C=C(/C)C(=O)O)(C3=O)[C@@]14O2 [Gh-2505, gambogenic acid] | 1.9 (≈ 3.01 µM) | 19 (≈ 30.1 µM) | 2.1 (≈ 3.33 µM) | 4.4 (≈ 6.98 µM) | 2.3 (≈ 3.65 µM) | 1.1 (≈ 1.74 µM) | 3.7 (≈ 5.87 µM) | 0.28 (≈ 0.444 µM) | 0.62 (≈ 0.983 µM) | 12 (≈ 19 µM) | 0.75 (≈ 1.19 µM) | 7.2 (≈ 11.4 µM) | 2.1 (≈ 3.33 µM) | 6.5 (≈ 10.3 µM) | –
2 | C=C(C)[C@@H]1CC[C@@]2(C)CC1c1c(O)c3c(c(CC=C(C)C)c1O2)O[C@]12C(=C[C@@H]4CC1C(C)(C)O[C@]2(/C=C/C(C)C(=O)O)C4=O)C3=O (stereo partly drawn) [Gh-2507, 3-butenoic acid, 2-methyl-4-[(1R,3aS,5S,9S,10R,13S,16aS)-3a,4,5,7,10,11,12,13-octahydro-8-hydroxy-3,3,13-trimethyl-15-(3-methyl-2-butenyl)-10-(1-methylethenyl)-7,18-dioxo-1,5:9,13-dimethano-1H,3H,9H-furo[3.4-g]oxocino[3.2-b]xanthen-1-yl],(3E)-] | 0.19 (≈ 0.302 µM) | 2.2 (≈ 3.5 µM) | 1.6 (≈ 2.54 µM) | 8.6 (≈ 13.7 µM) | 21 (≈ 33.4 µM) | 0.45 (≈ 0.716 µM) | 2.7 (≈ 4.29 µM) | 0.41 (≈ 0.652 µM) | 0.13 (≈ 0.207 µM) | 0.53 (≈ 0.843 µM) | 0.2 (≈ 0.318 µM) | 5.3 (≈ 8.43 µM) | 1.7 (≈ 2.7 µM) | 7.1 (≈ 11.3 µM) | –
3 | C=C(C)C1CC[C@]2(C)C[C@H]1c1c(O)c3c(c(CC=C(C)C)c1O2)O[C@]12C(=C[C@@H]4CC1C(C)(C)O[C@]2(/C=C/C(C)C(=O)O)C4=O)C3=O (stereo partly drawn) [Gh-2508, 3-butenoic acid, 2-methyl-4-[(1R,3aS,5S,9R,10S,13R,16aS)-3a,4,5,7,10,11,12,13-octahydro-8-hydroxy-3,3,13-trimethyl-15-(3-methyl-2-butenyl)-10-(1-methylethenyl)-7,18-dioxo-1,5:9,13-dimethano-1H,3H,9H-furo[3.4-g]oxocino[3.2-b]xanthen-1-yl]-,(3E)-] | 0.087 (≈ 0.138 µM) | 1.7 (≈ 2.7 µM) | 1.8 (≈ 2.86 µM) | 5.5 (≈ 8.75 µM) | 5.4 (≈ 8.59 µM) | 0.28 (≈ 0.445 µM) | 2.2 (≈ 3.5 µM) | 0.52 (≈ 0.827 µM) | 0.16 (≈ 0.254 µM) | 0.46 (≈ 0.732 µM) | 0.28 (≈ 0.445 µM) | 6.6 (≈ 10.5 µM) | 1.9 (≈ 3.02 µM) | 5.9 (≈ 9.38 µM) | –
4 | CC(C)=CCC[C@]1(C)C=Cc2c(O)c3c(c(CC=C(C)C)c2O1)O[C@]12C(=CC4CC1C(C)(C)O[C@]2(C/C=C(/C)C(=O)O)C4=O)C3=O [Gh-2605, gambogic acid] | 4.4 (≈ 7 µM) | 5.9 (≈ 9.38 µM) | 0.18 (≈ 0.286 µM) | 0.61 (≈ 0.97 µM) | 1.6 (≈ 2.54 µM) | 0.76 (≈ 1.21 µM) | 2.9 (≈ 4.61 µM) | 0.098 (≈ 0.156 µM) | 0.12 (≈ 0.191 µM) | 0.37 (≈ 0.588 µM) | 0.17 (≈ 0.27 µM) | 2.9 (≈ 4.61 µM) | 0.23 (≈ 0.366 µM) | 3.5 (≈ 5.57 µM) | –
5 | CC(C)=CCC[C@@]1(C)C=Cc2c(O)c3c(c(CC=C(C)C)c2O1)O[C@]12C(=C[C@@H]4CC1C(C)(C)O[C@]2(C/C=C(/C)C(=O)O)C4=O)C3=O [Gh-2606, epigambogic acid] | 1.3 (≈ 2.07 µM) | 1.6 (≈ 2.54 µM) | 0.39 (≈ 0.62 µM) | 2 (≈ 3.18 µM) | 1.4 (≈ 2.23 µM) | 0.41 (≈ 0.652 µM) | 3.1 (≈ 4.93 µM) | 0.11 (≈ 0.175 µM) | 0.1 (≈ 0.159 µM) | 0.31 (≈ 0.493 µM) | 0.66 (≈ 1.05 µM) | 2.4 (≈ 3.82 µM) | 0.38 (≈ 0.604 µM) | 3 (≈ 4.77 µM) | –
6 | CC(C)=CCc1c2c(c(O)c3c1O[C@@]1(C)CCC4C3C1C4(C)C)C(=O)C1=C[C@@H]3CC4C(C)(C)O[C@](C/C=C(/C)C(=O)O)(C3=O)[C@@]14O2 [Gh-2607-1A] | 0.12 (≈ 0.191 µM) | 1.5 (≈ 2.39 µM) | 0.24 (≈ 0.382 µM) | 0.84 (≈ 1.34 µM) | 1.5 (≈ 2.39 µM) | 0.15 (≈ 0.239 µM) | 0.37 (≈ 0.588 µM) | 0.43 (≈ 0.684 µM) | 0.19 (≈ 0.302 µM) | 0.45 (≈ 0.716 µM) | 0.49 (≈ 0.779 µM) | 2.6 (≈ 4.14 µM) | 0.43 (≈ 0.684 µM) | 3.9 (≈ 6.2 µM) | –
7 | CC(C)=CCc1c2c(c(O)c3c1O[C@]1(C)CCC4C3C1C4(C)C)C(=O)C1=C[C@@H]3CC4C(C)(C)OC(C/C=C(/C)C(=O)O)(C3=O)[C@@]14O2 [Gh-2607-B] | 0.1 (≈ 0.159 µM) | 0.68 (≈ 1.08 µM) | 0.3 (≈ 0.477 µM) | 1 (≈ 1.59 µM) | 1.6 (≈ 2.54 µM) | 0.1 (≈ 0.159 µM) | 0.25 (≈ 0.398 µM) | 0.07 (≈ 0.111 µM) | 0.1 (≈ 0.159 µM) | 0.33 (≈ 0.525 µM) | 0.13 (≈ 0.207 µM) | 3.1 (≈ 4.93 µM) | 0.31 (≈ 0.493 µM) | 4 (≈ 6.36 µM) | –
8 | CC(C)=CCC[C@]1(C)C[C@H](O)c2c(O)c3c(c(CC=C(C)C)c2O1)O[C@]12C(=C[C@@H]4CC1C(C)(C)O[C@]2(C/C=C(/C)C(=O)O)C4=O)C3=O [Gh-2641-1, neogambogic acid] | 0.2 (≈ 0.309 µM) | 3.5 (≈ 5.41 µM) | 2.6 (≈ 4.02 µM) | 6.8 (≈ 10.5 µM) | 4.3 (≈ 6.65 µM) | 0.26 (≈ 0.402 µM) | 1 (≈ 1.55 µM) | 0.54 (≈ 0.835 µM) | 0.15 (≈ 0.232 µM) | 0.22 (≈ 0.34 µM) | 0.18 (≈ 0.278 µM) | 4.5 (≈ 6.96 µM) | 1.7 (≈ 2.63 µM) | 4.6 (≈ 7.11 µM) | –
9 | CC(C)=CCC/C(C)=C/Cc1c(O)c(CC=C(C)C)c2c(c1O)C(=O)C1=C[C@@H]3CC4C(C)(C)O[C@](C/C=C(\C)C(=O)O)(C3=O)[C@@]14O2 [Gh-2642, isogambogenic acid] | 3 (≈ 4.76 µM) | 10 (≈ 15.9 µM) | 12 (≈ 19 µM) | 42 (≈ 66.6 µM) | 11 (≈ 17.4 µM) | 1.3 (≈ 2.06 µM) | 4.1 (≈ 6.5 µM) | 2.4 (≈ 3.8 µM) | 1.5 (≈ 2.38 µM) | 4.6 (≈ 7.29 µM) | 9 (≈ 14.3 µM) | 32 (≈ 50.7 µM) | 11 (≈ 17.4 µM) | 29 (≈ 46 µM) | –
10 | COC(=O)/C(C)=C\CC12OC(C)(C)C3CC(C=C4C(=O)c5c(O)c6c(c(CC=C(C)C)c5OC431)OC(C)(CCC(O)C(C)(C)O)C=C6)C2=O (stereo not shown) [methyl 37,38-dihydroxy-gambogate] | – | – | – | – | – | – | – | – | – | – | – | – | – | – | activator of caspases and an inducer of apoptosis
